In the assay the target is T1, HscFRS (Homo sapiens, UniProt Q9Y285).
T1 sequence (Q9Y285 1-508): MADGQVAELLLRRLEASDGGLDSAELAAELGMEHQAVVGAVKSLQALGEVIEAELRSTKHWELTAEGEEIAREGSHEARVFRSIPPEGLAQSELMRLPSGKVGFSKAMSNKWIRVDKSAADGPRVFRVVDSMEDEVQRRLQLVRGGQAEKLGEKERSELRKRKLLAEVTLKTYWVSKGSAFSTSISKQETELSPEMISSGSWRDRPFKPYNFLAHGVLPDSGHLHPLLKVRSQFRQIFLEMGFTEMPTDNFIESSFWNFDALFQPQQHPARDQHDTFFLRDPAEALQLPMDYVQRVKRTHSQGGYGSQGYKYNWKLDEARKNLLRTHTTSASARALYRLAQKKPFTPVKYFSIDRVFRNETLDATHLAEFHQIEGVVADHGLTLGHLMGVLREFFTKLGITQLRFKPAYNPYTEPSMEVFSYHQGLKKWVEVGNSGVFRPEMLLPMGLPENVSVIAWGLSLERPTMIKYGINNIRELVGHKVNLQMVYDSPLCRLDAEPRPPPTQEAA
T1 sequence (Q9NSD9 1-589 partner): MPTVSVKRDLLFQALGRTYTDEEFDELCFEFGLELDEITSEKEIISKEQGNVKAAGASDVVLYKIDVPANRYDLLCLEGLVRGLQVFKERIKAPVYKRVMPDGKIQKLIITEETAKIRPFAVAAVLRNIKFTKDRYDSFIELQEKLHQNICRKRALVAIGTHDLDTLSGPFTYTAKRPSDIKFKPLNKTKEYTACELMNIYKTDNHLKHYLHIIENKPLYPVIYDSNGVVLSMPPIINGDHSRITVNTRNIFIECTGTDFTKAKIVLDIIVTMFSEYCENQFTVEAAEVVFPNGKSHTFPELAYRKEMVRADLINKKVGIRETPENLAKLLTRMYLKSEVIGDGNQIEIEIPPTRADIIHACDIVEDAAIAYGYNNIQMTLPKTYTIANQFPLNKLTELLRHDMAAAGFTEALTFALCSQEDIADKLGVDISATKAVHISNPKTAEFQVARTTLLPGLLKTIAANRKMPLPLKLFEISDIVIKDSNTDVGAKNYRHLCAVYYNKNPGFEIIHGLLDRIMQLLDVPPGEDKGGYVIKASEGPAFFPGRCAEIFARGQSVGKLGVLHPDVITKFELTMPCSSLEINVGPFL
The assay is described as follows: malachite green-based aminoacylation assay, HscFRS. It is filed as biochemical. The settings on record: aminoacylation activity. An excerpt:
EC50 assays were run as described in Int'l Pub Nos. WO 2015070204, WO 2018175385, and Kato, N, et al. Nature 538 (2016): 344-349, which are hereby incorporated by reference in its entirety. The inhibition of the aminoacylation activity of Pf (Plasmodium falciparum), Pv (Plasmodium vivax), Hs (Human) and Pf-Mut (L550V) cFRS enzymes by Compound 1 are illustrated in FIG. 1.
The enzymatic activity of purified heterodimeric PfcFRS using malachite green-based aminoacylation assays with substrates L-Phe and ATP was also measured as described in Cestari, I. et al., J Biomol. Screen. 18 (2013): 490-497 and Kato, N, et al. Nature 538 (2016): 344-349, which are hereby incorporated by reference in its entirety. […] Enzymatic reactions (50 μl total volume) were performed in clear, flat-bottomed, 96-well plates (Costar 96-well standard microplates). The reaction mixture was incubated for 2 h at 37° C. The reaction was stopped by adding 12.5 μl of malachite green solution to the reaction mixture and levels of inorganic phosphate (Pi) were detected after incubation of 5 min at room temperature. Absorbance was the measured at 620 nm using a Spectramax M2 (Molecular Devices). Reactions without FRS enzyme were performed as background controls, values of which were subtracted from the reactions with enzyme. […]

The structures appear in SMILES notation. pIC50: −log10 of the molar value.

On to `COC[C@@H]1[C@H](c2ccc(C#Cc3ccccc3)cc2)[C@@H]2CN(C(=O)Nc3ccc(OC4CC4)cc3)C[C@@H](O)[C@@H](O)CN12` [Compound 1, (3S,4R,8R,9R,10S)—N-(4-cyclopropoxyphenyl)-3,4-dihydroxy-10-(methoxymethyl)-9-(4-(phenylethynyl)phenyl)-1,6-diazabicyclo[6.2.0]decane-6-carboxamide], for which the pIC50 is 4.92.
